# Tests used:
# Assay in all cases: relative viability (nuclei count vs DMSO), 5 days (fraction); higher = more cells survive
# MLN4924 + Olaparib = compound: NS(=O)(=O)OC[C@@H]1C[C@@H](n2ccc3c(N[C@H]4CCc5ccccc54)ncnc32)C[C@@H]1O [MLN4924] + O=C(c1cc(Cc2n[nH]c(=O)c3ccccc23)ccc1F)N1CCN(C(=O)C2CC2)CC1 [Olaparib] (partner 8 µM)
# Procedure, shortened: (§1)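 After 5 days of treatment, lung cancer cells in 1536-well plates were fixed and stained in a single step (final 0.05% Triton X-100, 1% formaldehyde, 1 ug/ml Hoechst) and their nuclei counted on 4× images. Treatment had been applied by pin tool the day after seeding as one drug alone or as a fixed anchor-drug dose with five library-drug doses (not always all listed) in √10 steps. Relative viability is the nuclei count of treated wells divided by that of vehicle wells, and values are medians of duplicate plates.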
# MLN4924 + Tozasertib = compound: NS(=O)(=O)OC[C@@H]1C[C@@H](n2ccc3c(N[C@H]4CCc5ccccc54)ncnc32)C[C@@H]1O [MLN4924] + Cc1cc(Nc2cc(N3CCN(C)CC3)nc(Sc3ccc(NC(=O)C4CC4)cc3)n2)n[nH]1 [Tozasertib] (partner 0.1 µM)
# Procedure, shortened: as §1
# Carboplatin + Vorinostat = compound: C1CC(C1)(C(=O)O)C(=O)O.[NH2-].[NH2-].[Pt+2] [Carboplatin] + O=C(CCCCCCC(=O)Nc1ccccc1)NO [Vorinostat] (partner 1 µM)
# Procedure, shortened: as §1
# Carboplatin + Pemetrexed = compound: C1CC(C1)(C(=O)O)C(=O)O.[NH2-].[NH2-].[Pt+2] [Carboplatin] + Nc1nc2[nH]cc(CCc3ccc(C(=O)N[C@@H](CCC(=O)O)C(=O)O)cc3)c2c(=O)[nH]1 [Pemetrexed] (partner 0.2 µM)
# Procedure, shortened: as §1
Cell Line,relative viability (MLN4924 + Olaparib; first compound 0.04 µM),relative viability (MLN4924 + Olaparib; first compound 0.1265 µM),relative viability (MLN4924 + Olaparib; first compound 0.4 µM),relative viability (MLN4924 + Olaparib; first compound 1.265 µM),relative viability (MLN4924 + Olaparib; first compound 4 µM),relative viability (MLN4924 + Tozasertib; first compound 0.04 µM),relative viability (MLN4924 + Tozasertib; first compound 0.1265 µM),relative viability (MLN4924 + Tozasertib; first compound 0.4 µM),relative viability (MLN4924 + Tozasertib; first compound 1.265 µM),relative viability (MLN4924 + Tozasertib; first compound 4 µM),relative viability (Carboplatin + Vorinostat; first compound 0.08 µM),relative viability (Carboplatin + Vorinostat; first compound 0.253 µM),relative viability (Carboplatin + Vorinostat; first compound 0.8 µM),relative viability (Carboplatin + Vorinostat; first compound 2.53 µM),relative viability (Carboplatin + Vorinostat; first compound 8 µM),relative viability (Carboplatin + Pemetrexed; first compound 0.08 µM),relative viability (Carboplatin + Pemetrexed; first compound 0.253 µM),relative viability (Carboplatin + Pemetrexed; first compound 0.8 µM),relative viability (Carboplatin + Pemetrexed; first compound 2.53 µM),relative viability (Carboplatin + Pemetrexed; first compound 8 µM)
ChaGo-K-1,0.279,0.205,0.227,0.153,0.147,0.22,0.174,0.221,0.184,0.158,0.752,0.704,0.649,0.577,0.4,0.262,0.261,0.253,0.249,0.269
SW 900,,0.594,0.429,0.233,0.228,0.625,0.474,0.435,0.171,0.114,0.476,0.522,0.501,0.528,0.519,0.495,0.468,0.488,0.525,0.496
NCI-H2342,0.432,0.425,0.381,0.391,0.352,0.416,0.455,0.533,0.445,0.408,0.751,0.788,0.828,0.865,0.744,0.786,0.844,0.791,0.834,0.762
NCI-H441,0.567,0.426,0.296,0.143,0.169,0.674,0.444,0.329,0.236,0.22,0.865,0.835,0.588,0.785,0.369,0.289,0.258,0.271,0.243,0.241
NCI-H3122,0.535,0.235,0.251,0.112,0.0876,0.347,0.226,0.113,0.0963,0.103,0.874,0.729,0.99,1.06,1,0.198,0.202,0.189,0.191,0.183
HCC-78,0.867,0.967,0.684,0.222,0.22,0.564,0.458,0.453,0.172,0.141,0.472,0.403,0.386,0.378,0.431,0.898,0.905,0.893,0.883,0.854
HCC-827,0.637,0.412,0.34,0.164,0.141,0.415,0.347,0.408,0.165,0.167,1.15,0.9,0.768,0.765,0.713,0.253,0.244,0.259,0.234,0.245
Calu-6,0.369,0.268,0.167,0.0976,0.0925,,,,,,,,,,,,,,,
NCI-H2009,0.449,0.382,0.143,0.146,0.0556,0.724,0.433,0.257,0.126,0.0886,0.75,0.771,0.723,0.704,0.477,1.04,0.983,1,0.958,0.654
NCI-H322M,0.708,0.511,0.498,0.372,0.427,0.479,0.537,0.434,0.26,0.325,0.994,0.855,0.928,0.91,0.709,0.688,0.601,0.613,0.594,0.616
NCI-H23,0.343,0.245,0.239,0.143,0.131,0.367,0.388,0.235,0.176,0.141,0.658,0.632,0.522,0.62,0.343,0.707,0.648,0.634,0.564,0.631
ABC-1,0.997,0.878,0.779,0.275,0.294,0.154,0.155,0.144,0.132,0.149,1.53,1.33,0.834,1.18,0.407,,,,,
NCI-H1792,0.452,0.37,0.384,0.33,0.104,,,,,,,,,,,1.21,0.75,0.755,0.811,0.608
NCI-H1563,,,,,,,,,,,,,,,,0.941,0.751,0.73,0.755,0.791
IA-LM,0.458,0.297,0.227,0.0664,0.0734,,,,,,0.952,1.05,1.05,0.913,0.81,,,,,
NCI-H1623,,,,,,0.42,0.372,0.398,0.203,0.195,,,,,,,,,,
NCI-H727,0.599,0.422,0.559,0.369,0.481,0.677,0.462,0.432,0.335,0.328,1.38,1.15,1.17,1.03,0.831,,,,,

# Reference: the supplement of paper PMC10307832
